“And” between values parts separate entries of the source, which are not always exact repeats. Equal entries are not always repeated. Where two headings read alike, the source gives them in different places.
Key:
A2780/CP70 cells [1] = experiment: Cell cycle analysis (DAPI, NC-3000), A2780/CP70 cells; type: cell-based, human; settings: 48 h
Protocol: (§1) Cells were seeded in T25 flasks at 4 × 10^5 cells per flask and were incubated for 48 h or until they reached confluency. […] After the incubation time elapsed cells were suspended in PBS with a density closer to 1 × 10^6cells/mL. The cells were washed twice with 1× PBS before the addition of 250 μL of lysis buffer (solution 10) supplemented with 10 μg/mL DAPI (solution 12) was added to the samples and incubated for 5 min at 37°C. After incubation, 250 μL of stabilization buffer (solution 11) was added. 12.5 μL of samples were loaded on to an A‐8 slide and were analyzed using the NC‐3000 system.

A2780 cells [2] = experiment: Cell cycle analysis (DAPI, NC-3000), A2780 cells; type: cell-based, human; settings: 48 h
Protocol: as §1

A2780/CP70 cells [3] = experiment: Mitochondrial membrane potential assay (JC-1), A2780/CP70 cells; type: cell-based, human; settings: A2780/CP70, 10-50 μM, 24 h, dose-dependent
Protocol: (§2) The mitochondrial membrane potential assay was performed to detect the loss in mitochondrial potential (de‐polarization), which is a vital step in apoptosis.[36] Cells were seeded in T25 flasks at 4 × 10^5 cells per flask and were incubated for 48 h or until they reached confluency. After the incubation time elapsed, drugs at concentrations of 10, 30, and 50 μM or vehicle were added to the flasks and further incubated for 24 h. After 24 h elapsed, the cells were harvested and suspended in PBS. Cell viability and number were determined by the cell viability assay using via1 cassettes on NC‐3000 system. The samples were diluted in PBS to 1 × 10^6 cells/mL and 2.5 μg/mL of JC‐1 dye was added to each sample. JC‐1 is a […] dye, which stains as fluorescent red as it aggregates in the mitochondrial matrix. In the absence of mitochondrial membrane potential, JC‐1 localizes in the cytosol in its fluorescent green form. Following the addition of JC‐1, the cells were incubated for 10–30 min at 37°C. […] 12.5 μL of samples were loaded on to an A‐8 slide and were analyzed using the NC‐3000 image cytometry. The degree of apoptosis (in proportional to the loss in mitochondrial membrane potential) was measured using a scatter plot of JC‐1 red fluorescence versus JC‐1 green fluorescence.

[4] = MTT cytotoxicity assay, non-cancer ARPE19 cells; settings: human, ARPE19 non-cancer retinal pigment cells
Protocol: (§9) Human ovarian carcinoma cells, A2780 (sensitive to chemotherapeutics), A2780/CP70 (resistant to chemotherapeutics), and non‐cancerous cells including PNT2 (normal prostate epithelial cell line), and/or ARPE19 (human retinal pigment cell line) were maintained according to the ATCC and ECACC guidelines.
(§10) In vitro chemosensitivity assays were performed using the MTT assay as previously described.[32], [33] Briefly, at 70% confluency, cells were seeded in 96‐well plates at a density of 2000 cells/well. […] After the allocated contact time had elapsed, the media was removed and 0.5% (w/v) MTT solution diluted in complete media (200 μL) was added to each well. Following a 4 h incubation, the supernatants were removed, and the formazan crystals were dissolved in dimethylsulfoxide (150 μL). The absorbance was read at 540 nm on a Tecan Infinite 50 plate UV reader.

A2780 cells [5] = experiment: Mitochondrial membrane potential assay (JC-1), A2780 cells; type: cell-based, human; settings: A2780, 10-50 μM, 24 h, dose-dependent
Protocol: as §2

[6] = MTT cytotoxicity assay, non-cancer PNT2 cells; settings: human, PNT2 normal prostate epithelial cells
Protocol: as §9, §10

[7] = test system: caspase 3/7 activity in A2780 cells; experiment: Caspase 3/7 assay, A2780 cells; type: cell-based, human; settings: A2780, 24 h contact time, dose-dependent, significant above 10 μM
Protocol: (§3) Sensolyte homogenous caspase 3/7 assay kit was used to determine the caspase activity in ovarian cancer cells when treated with CBG. Cells were seeded in 96‐well plate at 6 × 10^3 cells per well and were incubated for 24 h. CBG was added in concentrations of 10, 20, 30, and 50 μM and incubated for a further 24 h. After the incubation time elapsed, the media was removed and replaced with 150 μL/well of fresh complete media. Caspase 3/7 solution was prepared by diluting the caspase substrate 1:100 with DTT‐containing assay buffer. 50 μL/well caspase substrate was added to the plates, and the cells were incubated for 30 min. Ac‐DEVD‐AMC serves as the fluorogenic indicator for assaying caspase‐3/7 activity. Ac‐DEVD‐AMC generates the AMC fluorophore in the presence of caspase 3/7, which produces bright blue fluorescence. The fluorescence was measured by the FLOUstar OPTIMA plate reader with the excitation at 354 nm and emission at 442 nm.
(§4) The level of caspase 3/7 was also determined using Apotox‐Glo Triple assay. Cells were seeded and drugs were added as described above in Section 2.6.1. After 24 h incubation, caspase 3/7 reagent was prepared by mixing caspase buffer and substrate and 100 μL of reagent was added to each well for 30 min incubation at room temperature. […] The luminescence was measured by the FLOUstar OPTIMA plate reader.

A2780 cells [8] = experiment: MTT cytotoxicity assay, A2780 cells; settings: for Combination index (CI), carboplatin + CBD: A2780, 100 nM CBD
Protocol: (§5) In separate experiments, cells were seeded in 96‐well plates and after 24 h elapsed they were exposed to different concentrations of drugs or vehicle. Cells were then left in the incubator for a further 24 or 48 h. Then the media was replaced with fresh media containing no drug and the cells were left in the incubator. MTT assay was performed after 96 h elapsed from the time when cells were exposed to drugs or vehicle.
(§6) The cells were then left in the incubator and MTT assay was performed 96 h following the initial exposure to the drugs.
(§7) The selective index (SI) is the ratio of mean IC50 values for non‐cancer cells to cancer cells. […] While the isobologram can be considered predominantly as a graphical depiction of drug interactions, the combination index (CI) is a quantitative representation. It relates the actual drug concentration in the combination to the concentration of the single drug that achieves the same effect. […] Here, CI analysis was used to investigate combinations at 50% cytotoxicity. To this end the IC50 of the viability dose–response curves were determined by non‐linear regression curve fit analysis (GraphPad Prism, v5.00).
(§8) CIA+B is the combination index of A and B; C A the concentration of A applied in combination; C B the concentration of B applied in combination; IC50 A the IC50 of drug A when it was applied individually to the cells; IC50 B = IC50 of drug B when it was applied individually to the cells.

[9] = test system: caspase 3/7 activity in A2780/CP70 cells; experiment: Caspase 3/7 assay, A2780/CP70 cells; type: cell-based, human; settings: A2780/CP70, 24 h contact time, dose-dependent, significant above 10 μM
Protocol: as §3, §4

[10] = high doses such as 1500 mg/day; cited from earlier work
A2780/CP70 cells [11] = experiment: MTT cytotoxicity assay, A2780/CP70 cells; settings: for Combination index (CI), carboplatin + CBD: A2780/CP70, 100 nM CBD; for Combination index (CI), carboplatin + CBG: A2780/CP70, 100 nM CBG
Protocol: as §5, §6, §7, §8

C=C(C)[C@@H]1CCC(C)=C[C@H]1c1c(O)cc(CCCCC)cc1O [CBD, cannabidiol]
Cells in G0/G1 phase (A2780/CP70 cells [1]; A2780/CP70, 10 μM): 77.4 ± 1.3% | Cells in G0/G1 phase (A2780/CP70 cells [1]; A2780/CP70, 30 μM): 85.1 ± 1.1% | Cells in G0/G1 phase (A2780/CP70 cells [1]; A2780/CP70, 50 μM): 64.9 ± 0.9% | Cells in subG1 phase (A2780/CP70 cells [1]; A2780/CP70, 50 μM): 6 ± 0.9% | Cells in G0/G1 phase (A2780 cells [2]; A2780, 10 μM): 81.4 ± 1.3% | Cells in G0/G1 phase (A2780 cells [2]; A2780, 30 μM): 85 ± 1.5% | Cells in S phase (A2780 cells [2]; A2780, 30 μM): 6 ± 1.5% | Cells in G0/G1 phase (A2780 cells [2]; A2780, 50 μM): 61.6 ± 1.4% | Cells in subG1 phase (A2780 cells [2]; A2780, 50 μM): 11.1 ± 1.0% | Percentage of apoptotic cells (loss of mitochondrial membrane potential) (A2780/CP70 cells [3]): induced an increase in the percentage of apoptotic cells | IC50 at 24 h [4]: 25.3 ± 1.8 µM | IC50 at 48 h [4]: 14.4 ± 0.9 µM | IC50 at 72 h [4]: 13 µM | IC50 at 96 h [4]: 11.7 ± 1.2 µM | Percentage of apoptotic cells (loss of mitochondrial membrane potential) (A2780 cells [5]): induced an increase in the percentage of apoptotic cells | IC50 at 24 h [6]: 40.6 ± 2.3 µM | IC50 at 48 h [6]: 17.7 ± 2.4 µM | IC50 at 72 h [6]: 17.2 ± 0.6 µM | IC50 at 96 h [6]: 14.4 ± 1.6 µM | Caspase 3/7 activity [7]: increased the caspase 3/7 activity | IC50 (A2780 cells [8]; Homo sapiens, A2780, 24 h, read-out: IC50 cytotoxicity): 12.3 ± 0.7 µM | IC50 (A2780 cells [8]; Homo sapiens, A2780, 48 h, read-out: IC50 cytotoxicity): 6.8 ± 1.1 µM | IC50 (A2780 cells [8]; Homo sapiens, A2780, 72 h, read-out: IC50 cytotoxicity): 4.5 ± 0.1 µM | IC50 (A2780 cells [8]; Homo sapiens, A2780, 96 h, read-out: IC50 cytotoxicity): 3.5 ± 0.2 µM | Cytotoxicity (A2780 cells [8]; human): approximately 90% | Caspase 3/7 activity [9]: increased the caspase 3/7 activity | Tolerability in humans [10]: well tolerated | Selectivity index (A2780/CP70 cells [11]): 1.57 and 1.28 and 1.78 and 2.02 and 2.49 and 1.52 and 2.35 and 2.48 | IC50 (A2780/CP70 cells [11]; Homo sapiens, A2780/CP70, 24 h, read-out: IC50 cytotoxicity): 16.1 ± 0.6 µM | IC50 (A2780/CP70 cells [11]; Homo sapiens, A2780/CP70, 48 h, read-out: IC50 cytotoxicity): 11.2 ± 0.7 µM | IC50 (A2780/CP70 cells [11]; Homo sapiens, A2780/CP70, 72 h, read-out: IC50 cytotoxicity): 7.3 ± 0.4 µM | IC50 (A2780/CP70 cells [11]; Homo sapiens, A2780/CP70, 96 h, read-out: IC50 cytotoxicity): 5.8 ± 0.8 µM

N.N.O=C([O-])C1(C(=O)[O-])CCC1.[Pt+2] [carboplatin]
Combination index (CI), carboplatin + CBD (A2780 cells [8]; 24 h, at 50% cytotoxicity): 0.36 | Combination index (CI), carboplatin + CBD (A2780 cells [8]; 48 h, at 50% cytotoxicity): 0.17 | Combination index (CI), carboplatin + CBD (A2780 cells [8]; 72 h, at 50% cytotoxicity): 0.15 | Combination index (CI), carboplatin + CBD (A2780 cells [8]; 96 h, at 50% cytotoxicity): 0.096 | Combination index (CI), carboplatin + CBG (A2780 cells [8]; A2780, 100 nM CBG, 96 h, at 50% cytotoxicity): 0.55 | IC50 (A2780 cells [8]; read-out: IC50 cytotoxicity, recovery, A2780, 24 h exposure then drug washed out, MTT at 96 h): 7.9 ± 0.5 µM | IC50 (A2780 cells [8]; read-out: IC50 cytotoxicity, recovery, A2780, 48 h exposure then drug washed out, MTT at 96 h): 4.7 ± 0.2 µM | IC50 (A2780 cells [8]; read-out: IC50 cytotoxicity, recovery, A2780, 48 h exposure then drug washed out, MTT at 96 h, listed as Carboplatin): 4.8 ± 0.2 µM | IC50 (A2780 cells [8]; read-out: IC50 cytotoxicity, recovery, A2780, 72 h exposure then drug washed out, MTT at 96 h): 2.6 ± 0.5 µM | IC50 (A2780 cells [8]; read-out: IC50 cytotoxicity, A2780, 24 h contact time, MTT): > 100 µM | IC50 (A2780 cells [8]; read-out: IC50 cytotoxicity, A2780, 48 h contact time, MTT): 17.3 ± 0.6 µM | IC50 (A2780 cells [8]; read-out: IC50 cytotoxicity, A2780, 72 h contact time, MTT): 4.3 ± 0.7 µM | IC50 (A2780 cells [8]; read-out: IC50 cytotoxicity, A2780, 96 h contact time, MTT): 2.57 µM and 2.5 µM and 2.6 µM | IC50 (A2780 cells [8]; read-out: IC50 cytotoxicity, A2780, 96 h contact time, MTT, listed as Carboplatin): 2.6 ± 0.3 µM | Combination index (CI), carboplatin + CBD (A2780/CP70 cells [11]; 24 h): 0.85 | Combination index (CI), carboplatin + CBD (A2780/CP70 cells [11]; 48 h): 0.78 | Combination index (CI), carboplatin + CBD (A2780/CP70 cells [11]; 72 h): 0.8 | Combination index (CI), carboplatin + CBD (A2780/CP70 cells [11]; 96 h): 0.57 | Combination index (CI), carboplatin + CBG (A2780/CP70 cells [11]; 48 h): 0.78 | Combination index (CI), carboplatin + CBG (A2780/CP70 cells [11]; 72 h): 0.71 | Combination index (CI), carboplatin + CBG (A2780/CP70 cells [11]; 96 h): 0.65 | IC50 (A2780/CP70 cells [11]; read-out: IC50 cytotoxicity, recovery, A2780/CP70, 24 h exposure then drug washed out, MTT at 96 h): 66.5 ± 3.4 µM | IC50 (A2780/CP70 cells [11]; read-out: IC50 cytotoxicity, recovery, A2780/CP70, 48 h exposure then drug washed out, MTT at 96 h): 48.7 ± 0.4 µM | IC50 (A2780/CP70 cells [11]; read-out: IC50 cytotoxicity, recovery, A2780/CP70, 72 h exposure then drug washed out, MTT at 96 h): 45.5 ± 2.6 µM | IC50 (A2780/CP70 cells [11]; read-out: IC50 cytotoxicity, A2780/CP70, 24 h contact time, MTT): > 100 µM | IC50 (A2780/CP70 cells [11]; read-out: IC50 cytotoxicity, A2780/CP70, 48 h contact time, MTT): > 100 µM | IC50 (A2780/CP70 cells [11]; read-out: IC50 cytotoxicity, A2780/CP70, 72 h contact time, MTT): 48 ± 1.9 µM | IC50 (A2780/CP70 cells [11]; read-out: IC50 cytotoxicity, A2780/CP70, 96 h contact time, MTT): 44.9 ± 3.5 µM

COc1ccc(C(=O)c2c(C)n(CCN3CCOCC3)c3cc(I)ccc23)cc1 [AM630]
Concentrations at which the antagonist alone induced cytotoxicity (A2780 cells [8]; A2780, antagonist alone): higher than 1 μM | Concentrations at which the antagonist alone induced cytotoxicity (A2780/CP70 cells [11]; A2780/CP70, antagonist alone): higher than 1 μM

Cc1c(C)c2c(c(C)c1O)CC[C@@](C)(CCC[C@H](C)CCC[C@H](C)CCCC(C)C)O2 [α‐tocopherol]
Effect on viability of the cells when used alone (A2780 cells [8]; alone up to 100 μM, preliminary experiments, cell line not named (A2780 and A2780/CP70 tested)): did not compromise the viability of the cells

From article PMC10723784, “Investigation of the cytotoxicity induced by cannabinoids on human ovarian carcinoma cells” (Pharmacology Research & Perspectives, 2023)
